Patent publication US9062018B2, “Crytalline form of 13-[(N-tert-butoxycarbonyl)-2′-O-hexanoyl-3-phenylisoserinyl]-10-deacetylbaccatin III” (Indena S.p.A, priority 2010, dated 2015)

Key:
[1] = Stability data at 25±2° C. and 60±5% relative humidity of amorphous and Form A of compound (1); type: physicochemical; details: for HPLC assay (%) of compound (1) with reference to the anhydrous and solvent free basis / IR identification / Potential impurity-HPLC (area %): 10-dehydro compound (1): 25±2° C.; for HPLC assay (%) of compound (1) with reference to the anhydrous and solvent free basis / IR identification / Potential impurity-HPLC (area %): 10-dehydro compound (1) / Specific optical rotation (°) (c = 1 ethanol, at 20° C.): 60±5% relative humidity; for Specific optical rotation (°) (c = 1 ethanol, at 20° C.): storage 25±2° C.
Method: Stability data at 25±2° C. and 60±5% relative humidity of amorphous and Form A of compound (1). The packaging was the same for both solid forms (Amber glass vial+polyethylene bag+vacuum sealed PET/Aluminum/PE multilayer bag).

[2] = ICH stability studies (chemical stability of the solid form); type: physicochemical; details: mainly an impurity stemming from oxidation of the 10-position of the baccatin core
Text: Thus it is desirable to find a crystalline form of compound (1) which is chemically and thermodynamically stable. A method for preparing such solid form of compound (1) continually and constantly is also a prerequisite for the development of a robust manufacturing process.

[3] = T = 0, against the reference FTIR figure of the form
[4] = T = 0, amber glass vial + polyethylene bag + vacuum sealed PET/Aluminum/PE multilayer bag

Compound | HPLC assay (%) of compound (1) with reference to the anhydrous and solvent free basis ([1]; 3 months) | IR identification ([1]; 3 months) | Potential impurity-HPLC (area %): 10-dehydro compound (1) ([1]; 3 months) | Specific optical rotation (°) (c = 1 ethanol, at 20° C.) ([1]; 3 months) | HPLC assay (%) of compound (1) with reference to the anhydrous and solvent free basis ([1]; 6 months) | IR identification ([1]; 6 months) | Potential impurity-HPLC (area %): 10-dehydro compound (1) ([1]; 6 months) | Specific optical rotation (°) (c = 1 ethanol, at 20° C.) ([1]; 6 months) | Potential impurity-HPLC (area %): 10-dehydro compound (1) ([1]; T = 0) | IR identification [1, 3] | HPLC assay (%) of compound (1) with reference to the anhydrous and solvent free basis [1, 4] | Specific optical rotation (°) (c = 1 ethanol, at 20° C.) ([1]; T = 0) | Oxidation of the 10-position of the baccatin core ([1]; solid form on storage) | Chemical stability during ICH stability studies [2]
CCCCCC(=O)OC(C(=O)OC1CC2(O)C(OC(=O)c3ccccc3)C3C4(OC(C)=O)COC4CC(O)C3(C)C(=O)C(O)C(=C1C)C2(C)C)C(NC(=O)OC(C)(C)C)c1ccccc1 (centres unmarked) [Form A of compound (1), 13-[(N-tert-butoxycarbonyl)-2′-O-hexanoyl-3-phenylisoserinyl]-10-deacetylbaccatin III] | 99.0% | Complies | 0.29% area % | −46.3 ° | 99.1% | Complies | 0.29% area % | −46.3 ° | 0.29% area % | Complies with | 99.0% | −46.2 ° | prevented | 
CCCCCC(=O)OC(C(=O)OC1CC2(O)C(OC(=O)c3ccccc3)C3C4(OC(C)=O)COC4CC(O)C3(C)C(=O)C(O)C(=C1C)C2(C)C)C(NC(=O)OC(C)(C)C)c1ccccc1 (centres unmarked) [Amourphous Form of compound (1), 13-[(N-tert-butoxycarbonyl)-2′-O-hexanoyl-3-phenylisoserinyl]-10-deacetylbaccatin III] | 99.0% | Complies | 0.36% area % | −46.3 ° | 98.9% | Complie | 0.53% area % | −46.0 ° | 0.29% area % | Complies with | 99.7% | −46.0 ° |  | problems of chemical stability
